Assay: xn = mol fraction of the nth substance listed
Details: 99.7 kPa

Row | viscosity (303.15 K, x2 = 0.7343) | viscosity (303.15 K, x2 = 0.917) | viscosity (313.15 K, x2 = 0.4086) | viscosity (313.15 K, x2 = 0.7343) | viscosity (313.15 K, x2 = 0.917) | viscosity (323.15 K, x2 = 0.4086) | viscosity (323.15 K, x2 = 0.7343) | viscosity (323.15 K, x2 = 0.917) | viscosity (333.15 K, x2 = 0.4086) | viscosity (333.15 K, x2 = 0.7343) | viscosity (333.15 K, x2 = 0.917) | viscosity (303.15 K, x1 = 1) | viscosity (313.15 K, x1 = 1) | viscosity (333.15 K, x1 = 1) | SMILES
1 | 5.22 mPa·s | 2.84 mPa·s | 26.1 mPa·s | 5.01 mPa·s | 2.61 mPa·s | 18.1 mPa·s | 4.81 mPa·s | 2.36 mPa·s | 12.9 mPa·s | 4.62 mPa·s | 2.16 mPa·s |  |  |  | CCCCCCCCn1cc[n+](C)c1.F[B-](F)(F)F + CC1COC(=O)O1
2 |  |  |  |  |  |  |  |  |  |  |  | 2.21 mPa·s | 2 mPa·s | 1.6 mPa·s | CC1COC(=O)O1 (centres undefined) + CCCCCCCCn1cc[n+](C)c1.F[B-](F)(F)F
